The source of these data is article PMC4296974 (Bioorganic & medicinal chemistry letters, 2014).

The target in test [1] is T1, rNTS2 (Rattus norvegicus, UniProt Q63384).
T1 sequence (Q63384 1-416): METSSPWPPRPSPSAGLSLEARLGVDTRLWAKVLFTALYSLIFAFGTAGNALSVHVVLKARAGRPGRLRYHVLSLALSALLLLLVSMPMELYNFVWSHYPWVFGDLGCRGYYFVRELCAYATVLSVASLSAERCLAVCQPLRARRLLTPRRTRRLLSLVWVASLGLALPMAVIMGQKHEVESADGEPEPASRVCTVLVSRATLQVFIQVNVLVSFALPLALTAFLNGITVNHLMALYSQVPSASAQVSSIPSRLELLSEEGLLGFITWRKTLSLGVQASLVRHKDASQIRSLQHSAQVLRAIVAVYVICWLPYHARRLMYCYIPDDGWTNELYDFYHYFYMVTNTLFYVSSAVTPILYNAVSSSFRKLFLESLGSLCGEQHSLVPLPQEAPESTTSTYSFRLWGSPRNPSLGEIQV
The test is described as follows: FLIPR calcium mobilization assay in CHO cell line stably expressing rNTS2. It counts as cell-based. In general terms: Calcium assays in cells follow changes in intracellular calcium, usually with a dye or a luminescent sensor.

In test [2] the target is T1, rNTS2. The settings on record: Emax value is % of 4; cited from earlier work.
The target of test [3] is rNTS1 (Rattus norvegicus, UniProt P20789). The settings on record: read-out: Binding Assay NTS1 Ki; [125I]NT, bound; cited from earlier work.
rNTS1, sequence (P20789 whole entry): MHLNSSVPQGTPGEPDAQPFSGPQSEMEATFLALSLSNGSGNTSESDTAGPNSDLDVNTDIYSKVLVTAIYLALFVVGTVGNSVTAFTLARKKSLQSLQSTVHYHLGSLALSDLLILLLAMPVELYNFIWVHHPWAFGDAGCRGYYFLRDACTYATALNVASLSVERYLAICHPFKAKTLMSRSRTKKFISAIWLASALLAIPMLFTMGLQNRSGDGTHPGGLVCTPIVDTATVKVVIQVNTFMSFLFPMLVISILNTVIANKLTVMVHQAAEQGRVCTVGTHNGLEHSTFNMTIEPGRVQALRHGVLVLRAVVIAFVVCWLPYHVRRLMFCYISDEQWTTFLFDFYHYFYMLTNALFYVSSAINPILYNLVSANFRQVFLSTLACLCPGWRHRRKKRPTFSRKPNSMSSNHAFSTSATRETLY
Test [4] addresses T1, rNTS2. In words: [125I]NT competition binding assay at NTS2. The settings on record: relative to 9.
Test [5] deals with NTS1 (Rattus norvegicus, UniProt P20789). The test is described as follows: FLIPR calcium mobilization assay at NTS1. The test is classed as cell-based. The settings on record: 17: agonist and antagonist screen at 10 μM; 9, 14b, 16b: data not shown.
NTS1, sequence (P20789 whole entry): as above

For orientation: Emax means the greatest response seen or fitted, relative to the assay's reference. For `COc1cccc(OC)c1-c1cc(C(=O)NC2(C(=O)O)C3CC4CC(C3)CC2C4)nn1-c1ccc(C(=O)N(C)CCCN(C)C)cc1C(C)C` (centres unmarked) [Compound 4, reference compound], the Emax in test [1] (CHO, read-out: FLIPR Assay NTS2 Emax) came to 100 ± 5%.

A word on the Ki: it is a measure of affinity in units of concentration, obtained from inhibition or displacement. On to `C[C@@H]1CN([C@H]2CC[C@](C#N)(c3ccc(F)cc3)CC2)CC[C@]1(C(=O)O)c1ccccc1` [Compound 5, levocabastine], for which the “FLIPR Assay NTS2 Emax” value in test [2] was 16±3%. Moreover, the Ki in test [3] is > 25 µM.

Take `COc1cccc(OC)c1-c1nc(C(=O)N[C@H](C(=O)O)C2CCCCC2)nc2ccc(Cl)cc12` [Compound 14b]: the “Fold less active than NT in the NTS2 functional assay” value in test [1] (IC50 comparison with NT) is recorded as 25 fold. Moreover, the “Fold weaker than 9 in NTS2 binding (Ki)” value in test [4] stood at 5 fold. Moreover, in test [5], the “Activity in the calcium mobilization assay at NTS1” value was “failed to show activity”.

As to `COc1cccc(OC)c1-c1nc(C(=O)NC2(C(=O)O)CCCCC2)nc2ccc(Cl)cc12` [Compound 16b], the “Fold lower activity than 9 in NTS2 FLIPR assay (EC50)” value in test [1] (relative to 9) is reported as “roughly 10 fold”. Moreover, the “Fold weaker than 9 in NTS2 binding (Ki)” value in test [4] is given as 11 fold. In addition, the “Activity in the calcium mobilization assay at NTS1” value in test [5] was “failed to show activity”.

`O=C(O)c1cc(Nc2nc(-c3ccccc3)c3cc(Cl)ccc3n2)ccc1O` [Compound 17]: in test [5], the “Activity in the calcium mobilization assay at NTS1” value is given as “devoid of activity”.

For orientation: inhibition means the relative decrease from the control value, in per cent. Turning to `COc1cccc(OC)c1-c1cc(C(=O)N[C@@H](CC(C)C)C(=O)O)nn1-c1ccc(F)cc1` [Compound 21, reference compound], the inhibition at 10 µM in test [1] (CHO, read-out: % inhibition of calcium release mediated by 4 at NTS2) is < 30%.
